One experiment concerns Hep-G2 (liver). Description: Tumor cell line panel, sulforhodamine B, Hep-G2. Format: cell-based. The settings on record: Homo sapiens, HepG2, 48 hours, mean ± sd. As to the method: (§1) To examine the range of anticancer, the chemotherapeutic potency of ABC294640 towards a panel of varied human tumor cell lines representing several major tumor types were determined. […] [table]

A further experiment deals with T24 (bladder). Description: Tumor cell line panel, sulforhodamine B, T24. Format: cell-based. The settings on record: Homo sapiens, 48 hours, mean ± sd. The procedure:
as §1

The values that follow come from patent publication US9844540B2, “Combination therapies for treating cancer” (RedHill Biopharma Ltd., priority 2015, dated 2017).

As a reminder, the IC50 is the midpoint of a concentration-inhibition curve. Higher therefore signals weaker potency in that assay. For `O=C(NCc1ccncc1)C12CC3CC(C1)CC(c1ccc(Cl)cc1)(C3)C2` [Compound 62, 3-(4-Chloro-phenyl)-adamantane-1-carboxylic acid(pyridin-4-ylmethyl)-amide], the IC50 is 6 ± 2.6 µM with Hep-G2 (liver) and 39.4 ± 7.4 µM with T24 (bladder).
